Patent US20250319049A1, “Additive for animal nutrition” (ADISSEO FRANCE S.A.S., priority 2022, published 2025)

How the values were obtained:
[1] = in vitro upper digestive tract model (simulated chicken crop, proventriculus/gizzard, intestine): release of butyric acid; format: in vitro ADME; settings: 50 mM butyric acid equivalent; for release of butyric acid in the stomach: proventriculus/gizzard 45 min at pH 3, 40° C. with pepsin
Experimental: The experimental tests were conducted in in vitro models described below.
The method developed by Menezez and Blackburn was used to simulate the chicken digestive tract [Menezes-Blackburn D, Gabler S, Greiner R. «Performance of Seven Commercial Phytases in an in Vitro Simulation of Poultry Digestive Tract.»J Agric Food Chem. 2015 Jul. 15; 63 (27): 6142-9]. It consists of simulating the 3 compartments of the upper part of the digestive tract: the crop (30 min at pH 5, 40° C. with stirring), the proventriculus/gizzard (45 min at pH 3, 40° C. with stirring with the addition of pepsin), the intestine (60 min at pH 6.5, 40° C. with stirring with the addition of pancreatin and bile extract). The rate of protection and release of butyrate for each molecule (50 mM butyric acid equivalent of the butyryl lactylate of the disclosure or tributyrin of the prior art) was evaluated in each compartment sequentially (quantification of the release of butyric acid and residual butyric ester).

[2] = palatability / growth performance test in broilers; format: in vivo; settings: broiler chickens, 17-21 days, butyrate source incorporated in standard feed (STD), five days
Experimental: This evaluation was carried out by in vivo tests conducted in broilers and in piglets at the post-weaning stage. The chickens were placed in normal breeding conditions. They were divided into several groups, and each group received for five days a feed containing a source of butyrate, incorporated directly into a standard feed (STD). […] The growth performances and feed consumption were measured at the beginning and end of the study.

[3] = palatability / growth performance test in post-weaning piglets; format: in vivo; set-up: concentration or dose not given beside the values; settings: butyrate source in standard feed (STD); for BWG (body weight gain), effect compared to a standard control: 36-49 days old; for FCR (feed conversion ratio), effect compared to a standard control / FI (feed intake), effect compared to a standard control: 36-49 days
Experimental: This evaluation was carried out by in vivo tests conducted in broilers and in piglets at the post-weaning stage.
The animals were placed in normal breeding conditions.
They were divided into four distinct groups, and each group received for about ten days (from 36 to 49 days of age) a standard feed (STD) containing a source of butyrate. Several sources of butyrate were compared: the butyryl lactylate of the disclosure and two protected forms of butyrate, commercially available, a coated butyrate (fat-coated) and tributyrin.
The growth performances and feed consumption were measured at the beginning and end of the study.

[4] = in vitro lower digestive tract model (caecal fermentation): release of butyric acid; format: in vitro ADME, broiler chickens (Ross PM33); settings: 50 mM butyric acid equivalent; upper tract model plus caecal fermentation 24 hours at 40° C.
Experimental: Twelve twenty-one-day-old broiler chickens (Ross PM33), housed in cages, fed and watered ad libitum, were euthanized and their caecal contents were collected and pooled. All experiments were conducted in accordance with the European Union animal protection guidelines and the legislation governing the ethical treatment of animals, and the researchers were certified by the French government to conduct animal experiments. The facilities of the Centre of Expertise and Research in Nutrition comply with Convention No. C 03 159 4 of 6 Nov. 2008, relating to experiments on living vertebrate animals (European Regulation 24/11/86 86/609 EEC; Ministerial Order of 19 Apr. 1988).
The cecal contents were mixed (5% w/v) with an anaerobic buffer prepared according to Theodorou et al. [Theodorou, Michael K., et al. “A simple gas production method using a pressure transducer to determine the fermentation kinetics of ruminant feeds.” Animal feed science and technology 48.3-4 (1994): 185-197], then the microbial suspension transferred into Hungate tubes containing 50 mM of butyric acid equivalent for each candidate (butyryl lactylate of the disclosure or tributyrin of the prior art) and incubated for 24 hours with constant stirring at 40° C.
At the end of the fermentation, the butyric acid and residual butyric ester were quantified.

solubility in water = format: physicochemical
[5] = hydrolysis in drinking water; format: physicochemical; settings: drinking water of livestock
[6] = listed as STD + tributyrine butyrate
[7] = listed as STD + butyryl lactylate
[8] = listed as STD + Butyryl lactylate

Compound | release of butyric acid in the stomach [1] | BWG (body weight gain), effect compared to a standard diet [2] | FCR (feed conversion ratio), effect compared to a standard diet [2] | FI (feed intake), effect compared to a standard diet [2] | BWG (body weight gain), effect compared to a standard control [3] | FCR (feed conversion ratio), effect compared to a standard control [3] | FI (feed intake), effect compared to a standard control [3] | also measured
CCCC(=O)OCC(COC(=O)CCC)OC(=O)CCC [tributyrin, reference compound] | significant gastric loss | −9% | +6.6% | −3% | −17% | +3.3% | −14% | release of butyric acid in the intestine (upper part) ([1]; intestine 60 min at pH 6.5, 40° C. with pancreatin and bile extract): complete release at the beginning of the small intestine; BWG (body weight gain), effect compared to a standard diet [2, 6]: −9%; FI (feed intake), effect compared to a standard diet [2, 6]: −3%; BWG (body weight gain), effect compared to a standard control [3, 6]: −17%; FCR (feed conversion ratio), effect compared to a standard control [3, 6]: +3.3%; FI (feed intake), effect compared to a standard control [3, 6]: −14%
CCCC(=O)OC(C)C(=O)O (stereo not shown) [butyryl lactylate] | does not release butyric acid in the stomach | +10% | −6.7% | +2.8% | +21% | −4% | +16% | intestinal release profile of butyric acid, upper and lower intestine [4]: balanced release in the upper and lower intestine; BWG (body weight gain), effect compared to a standard diet [2, 7]: +10%; FI (feed intake), effect compared to a standard diet [2, 7]: +2.8%; BWG (body weight gain), effect compared to a standard control [3, 8]: +21%; FCR (feed conversion ratio), effect compared to a standard control [3, 8]: −4.8%; FI (feed intake), effect compared to a standard control [3, 8]: +16%; solubility in water (solubility in water): soluble in water; hydrolysis into lactic acid and free butyric acid in drinking water [5]: without risk of hydrolysis
